Measured values taken from patent US20240269094A1, “Treatment of canine dermatitis and skin irritation” (priority 2023, published 2024).
Where two headings read alike, the source gives them in different places.

How the values were obtained:
TRPA1 = biological target: T1, TRPA1 (Homo sapiens, UniProt O75762); experiment: Bioassay in cells transfected with TRPA1 (FIG. 4); assay type: cell-based
T1 construct: expressed in transfected cells
From the text: FIG. 4 Bioassay of FEMA 4557 (labeled as BUDA on the graph) in TRPM8 and TRPA1. Data from the laboratory of Prof. Seok-Yong Lee at Duke University.
FIG. 4 Bioassay of FEMA 4557 (labeled as BUDA) in TRPM8 and TRPA1. Data of Prof. Seok-Yong Lee at Duke University.

tongue [1] = experiment: Oral cavity screen: 15 mg of crystals on the dorsal surface of the tongue; assay type: in vivo, human
Experimental: In this discovery, sensory activity in the oral cavity was the first screen. The goal was to identify candidates producing unusual sensations. Test agents, prepared as 15 mg of white crystals, were placed on the dorsal surface of the tongue. The chemical structures and identifying characteristics are in Table 1. […] Related cooling agents were not freezing cold, except for WS-23.

TRPM8 [2] = biological target: T2, TRPM8 (Mus musculus, UniProt Q8R4D5); design: EC50; conditions: Ref. 3 (Bodding et al., 2007); cited from earlier work
T2 sequence (Q8R4D5 whole entry): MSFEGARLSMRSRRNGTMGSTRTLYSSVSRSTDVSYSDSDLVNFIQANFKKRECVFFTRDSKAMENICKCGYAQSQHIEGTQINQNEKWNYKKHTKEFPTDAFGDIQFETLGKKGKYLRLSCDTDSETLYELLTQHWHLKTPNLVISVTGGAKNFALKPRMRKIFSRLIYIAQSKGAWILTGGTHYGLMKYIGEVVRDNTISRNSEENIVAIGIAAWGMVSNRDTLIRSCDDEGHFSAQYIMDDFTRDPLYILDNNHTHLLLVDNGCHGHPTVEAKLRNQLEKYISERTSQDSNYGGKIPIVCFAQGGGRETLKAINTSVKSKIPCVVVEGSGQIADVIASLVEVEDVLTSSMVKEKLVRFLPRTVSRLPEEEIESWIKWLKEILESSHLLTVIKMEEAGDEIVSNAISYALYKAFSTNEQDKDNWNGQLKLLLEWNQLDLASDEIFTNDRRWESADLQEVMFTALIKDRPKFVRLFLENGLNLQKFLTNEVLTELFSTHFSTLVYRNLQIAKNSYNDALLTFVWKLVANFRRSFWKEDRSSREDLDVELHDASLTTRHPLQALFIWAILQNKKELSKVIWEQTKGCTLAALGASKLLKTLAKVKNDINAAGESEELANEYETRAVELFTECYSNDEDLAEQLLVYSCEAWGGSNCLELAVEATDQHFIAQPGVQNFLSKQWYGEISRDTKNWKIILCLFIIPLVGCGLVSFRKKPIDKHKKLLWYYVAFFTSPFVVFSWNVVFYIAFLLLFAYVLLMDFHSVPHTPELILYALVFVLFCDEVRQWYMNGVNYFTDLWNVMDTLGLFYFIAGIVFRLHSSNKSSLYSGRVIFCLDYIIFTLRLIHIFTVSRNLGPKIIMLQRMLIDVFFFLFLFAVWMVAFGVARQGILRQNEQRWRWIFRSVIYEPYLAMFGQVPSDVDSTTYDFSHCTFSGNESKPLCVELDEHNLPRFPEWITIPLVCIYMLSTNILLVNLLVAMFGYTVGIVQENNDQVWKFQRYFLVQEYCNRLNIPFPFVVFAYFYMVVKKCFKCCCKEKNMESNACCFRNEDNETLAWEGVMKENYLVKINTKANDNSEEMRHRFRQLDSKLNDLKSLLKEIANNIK

TRPM8 [3] = biological target: T3, TRPM8 (Rattus norvegicus, UniProt Q8R455); design: EC50; other: Sherkheli, 196/1500; conditions: Ref. 4 (Sherkheli et al., 2010); cited from earlier work
T3 sequence (Q8R455 whole entry): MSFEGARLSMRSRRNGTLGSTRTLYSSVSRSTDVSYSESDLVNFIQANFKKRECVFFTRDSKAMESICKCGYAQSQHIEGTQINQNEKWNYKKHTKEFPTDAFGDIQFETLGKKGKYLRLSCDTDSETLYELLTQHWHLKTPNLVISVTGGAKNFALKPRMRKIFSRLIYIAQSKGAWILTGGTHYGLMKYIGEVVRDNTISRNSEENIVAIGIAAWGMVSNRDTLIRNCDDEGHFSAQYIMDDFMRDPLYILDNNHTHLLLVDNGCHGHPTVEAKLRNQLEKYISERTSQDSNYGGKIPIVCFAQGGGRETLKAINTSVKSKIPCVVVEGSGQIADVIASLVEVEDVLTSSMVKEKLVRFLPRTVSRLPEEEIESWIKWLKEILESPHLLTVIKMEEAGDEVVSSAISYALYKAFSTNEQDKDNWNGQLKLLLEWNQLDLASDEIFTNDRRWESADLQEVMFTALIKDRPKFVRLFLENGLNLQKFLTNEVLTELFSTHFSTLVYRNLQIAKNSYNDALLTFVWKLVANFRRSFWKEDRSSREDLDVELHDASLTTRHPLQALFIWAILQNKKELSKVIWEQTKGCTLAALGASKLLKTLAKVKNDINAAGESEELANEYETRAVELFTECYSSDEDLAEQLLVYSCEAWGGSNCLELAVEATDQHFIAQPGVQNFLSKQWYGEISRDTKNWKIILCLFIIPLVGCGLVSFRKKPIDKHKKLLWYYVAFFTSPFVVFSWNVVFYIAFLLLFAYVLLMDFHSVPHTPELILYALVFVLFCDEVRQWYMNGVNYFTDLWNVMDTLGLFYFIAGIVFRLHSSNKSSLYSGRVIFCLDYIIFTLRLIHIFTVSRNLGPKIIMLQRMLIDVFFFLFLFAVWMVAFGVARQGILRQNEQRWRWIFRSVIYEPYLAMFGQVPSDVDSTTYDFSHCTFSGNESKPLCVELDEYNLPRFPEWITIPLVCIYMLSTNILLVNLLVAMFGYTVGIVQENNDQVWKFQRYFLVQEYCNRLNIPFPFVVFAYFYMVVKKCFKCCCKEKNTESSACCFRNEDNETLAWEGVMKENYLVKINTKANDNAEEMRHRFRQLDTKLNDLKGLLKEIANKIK

TRPM8 [4] = biological target: T2, TRPM8; conditions: Ref. 2 (Behrendt et al., 2004); cited from earlier work
tongue [5] = experiment: Oral cavity screen: 15 mg of crystals on the dorsal surface of the tongue; assay type: in vivo, human; conditions: less than 2 mg on the tongue
philtrum skin = experiment: Philtrum (skin) bioassay of cooling; assay type: in vivo, human; conditions: for Duration-Skin: Wei, Table 6, see FIG. 6; for Comments: quality of sensation on philtrum skin: 8% wt/vol; for Duration of cooling: 8% wt/vol on philtrum
Experimental: FIG. 5. The philtrum bioassay. Cooling agents, prepared as a or in solution are applied to the philtrum skin. Cooling intensity is rated on a scale of 0 to 3, with 0=no changes in sensation, 1=a slight feeling of coolness, cold or tingling, 2=a clearcut feeling of coolness of cold, and 3=a robust feeling of coolness of cold. The duration of cooling was recorded until two zeroes were measured 10 min apart.
TRPM8 EC50 Receptor Assay. […] A receptor assay is a standard tool and can be done quickly. For example, in a 384-plate assay, you can easily test 10 compounds and get dose-response data. For a chemical agonist, an in vitro TRPM8 assay generates an EC50 (median effective concentration). But the quantitative correlation between the EC50 on TRPM8 and cooling sensation was vague. That is, the science was “roughly” predictive, but there was considerable uncertainty for each agonist. […] Philtrum (Skin) Assay. For cooling sensations on the skin, it is necessary to test the substance on the skin. Wei proposed the use of the skin on the philtrum as a test site for cooling activity of chemicals (FIG. 5). The test substance is dissolved in a carrier, such as solvent, gel, or ointment and applied to the philtrum, a surface area of […]. The subject records sensations on the philtrum and environs as:
The subject is given a form to record observations and instructions to mark sensations on the philtrum and environs as: 0=no changes in sensation, 1=a slight feeling of coolness, cold, or tingling, 2=a clearcut feeling of coolness or cold, and 3=a robust feeling of coolness and cold.
The intervals for measurements are usually at 5, to 15 min after application, until two successive zeros are obtained. The philtrum application site is the midline groove above the upper lip border and vermilion. The gel is placed on the philtrum with a cotton-tipped applicator up to the nasolabial folds and sometimes, but not deliberately, on the lower nostrils (subnasale). Cold receptors densely innervate the philtrum skin (FIG. 5), second only to the surfaces of the eyeball and anogenitalia. The lips also have a high density of “cold spots.” Hensel et al. mapped the cold spots on the human face (cited in Dhaka et al., 2008). In animals such as the rat the mystacial pad (nose pad with vibrissae) is abundantly labeled with TRPM8-fibers. “Cold Points” linked to single-unit neuronal discharges can be measured in experimental animals. Wei has direct experience in such experiments (Poree et al., 1989).
Dip a cotton-tipped applicator (Puritan Cotton-tipped applicators, or Q-Tips) into a reservoir bottle containing the liquid or semi-liquid (gel) test substance. The composition adhering to the cotton (about 0.1 mL) is put on the skin. The philtrum site is shown in a cartoon. A subject can practice the method in front of a mirror with a high-intensity light source. Results for test on the philtrum are in Table 8 and FIG. 5. See data in FIG. 6. Cooling agents, prepared as an 8% wt./vol. gel, was tested topically on the philtrum skin assay. The duration of cooling was recorded (min on y-axis). The startling activity of FEMA 4557, cooling for ˜3 hr, was unexpected and surprising. FEMA 3784 is also known as Cool 10 or menthoxypropanediol. […]

[6] = tested on: itch of urticaria and scalp itch; conditions: Kang et al., 2022; cited from earlier work
[7] = tested on: itch induced by various pruritogens; experiment: Itch induced by pruritogens on skin of healthy volunteers (FIG. 1); assay type: in vivo, human; conditions: gel on skin, five test pruritogens, itch self-rated 0 to 10 for 10 min
Experimental: FIG. 1. Topical Application of a cooling DIPA1-7 gel on skin of healthy volunteers inhibits itch induced by various pruritogens. n=30 subjects per trial. Results of Prof. Hyeone Kim, Sacred Heart Hospital, […] University, Seoul, Korea. Itch intensity was self-rated on a scale of 0 to 10 for 10 min (maximum score=100). […] Further details will be described in a scientific paper.

TRPM8 [8] = biological target: TRPM8 (Homo sapiens, UniProt Q7Z2W7); design: EC50; other: Johnson, 2.2/2.2; conditions: Ref. 5 (Johnson et al., 2018); cited from earlier work
oral cavity = conditions: 100 ppm in 5% sucrose; scale of 0 to 9 units; Johnson, 2018; cited from earlier work
[9] = Comparison of classes of cooling agents for applications on the canine skin (grades); design: species or system dog; key: A = excellent; B = average; C = poor; F = does not work; conditions: grade
From the text: Here are comments on grades assigned to specific classes of cooling agents (Table 3). […] The p-menthane carboxamides cover a wide range of compounds, but they are difficult for skin formulation to achieve a long duration of action. Menthol is short-acting and irritating, especially when it is near the ocular surface. The 1-dialkylphosphorylalkane known as DIPA1-7 (Cryosim-1, 1-dialkylphosphorylheptane) is an excellent skin agent, but costs are high for dermatological applications.

scratching excoriations = conditions: ointment; Biro et al., 2005; cited from earlier work
TRPM8 [10] = biological target: T3, TRPM8; conditions: Ref. 1 column (McKemy et al., 2002); cited from earlier work
[11] = tested on: canine dermatitis, scratching and licking; experiment: Topical treatment of canine skin irritation (case studies); assay type: in vivo, dog; conditions: Study 3, repeated bathing
Experimental: The Applicant gave the dog's owner an airless pump dispenser containing 8% wt/vol of FEMA 4557 dispersed in 4 mg/ml of carbapol 980, formulated with 1% ethanol and 1% menthol, and instructed him to apply the gel to the skin of the dog's belly and groin.
A twelve-year-old West Highland Terrier had periodic episodes of seasonal skin allergy. […] The owner of the dog, who had access to a pharmacy, applied nystatin ointment and a potent skin steroid cream containing […].
Next, a 20% wt/vol FEMA 4557 solution, dissolved in propylene glycol, was applied to the interdigital folds of the paws with a cotton-tipped applicator (FIG. 9).

canine atopic dermatitis = conditions: cited from earlier work

T1 sequence (O75762 whole entry, species assumed): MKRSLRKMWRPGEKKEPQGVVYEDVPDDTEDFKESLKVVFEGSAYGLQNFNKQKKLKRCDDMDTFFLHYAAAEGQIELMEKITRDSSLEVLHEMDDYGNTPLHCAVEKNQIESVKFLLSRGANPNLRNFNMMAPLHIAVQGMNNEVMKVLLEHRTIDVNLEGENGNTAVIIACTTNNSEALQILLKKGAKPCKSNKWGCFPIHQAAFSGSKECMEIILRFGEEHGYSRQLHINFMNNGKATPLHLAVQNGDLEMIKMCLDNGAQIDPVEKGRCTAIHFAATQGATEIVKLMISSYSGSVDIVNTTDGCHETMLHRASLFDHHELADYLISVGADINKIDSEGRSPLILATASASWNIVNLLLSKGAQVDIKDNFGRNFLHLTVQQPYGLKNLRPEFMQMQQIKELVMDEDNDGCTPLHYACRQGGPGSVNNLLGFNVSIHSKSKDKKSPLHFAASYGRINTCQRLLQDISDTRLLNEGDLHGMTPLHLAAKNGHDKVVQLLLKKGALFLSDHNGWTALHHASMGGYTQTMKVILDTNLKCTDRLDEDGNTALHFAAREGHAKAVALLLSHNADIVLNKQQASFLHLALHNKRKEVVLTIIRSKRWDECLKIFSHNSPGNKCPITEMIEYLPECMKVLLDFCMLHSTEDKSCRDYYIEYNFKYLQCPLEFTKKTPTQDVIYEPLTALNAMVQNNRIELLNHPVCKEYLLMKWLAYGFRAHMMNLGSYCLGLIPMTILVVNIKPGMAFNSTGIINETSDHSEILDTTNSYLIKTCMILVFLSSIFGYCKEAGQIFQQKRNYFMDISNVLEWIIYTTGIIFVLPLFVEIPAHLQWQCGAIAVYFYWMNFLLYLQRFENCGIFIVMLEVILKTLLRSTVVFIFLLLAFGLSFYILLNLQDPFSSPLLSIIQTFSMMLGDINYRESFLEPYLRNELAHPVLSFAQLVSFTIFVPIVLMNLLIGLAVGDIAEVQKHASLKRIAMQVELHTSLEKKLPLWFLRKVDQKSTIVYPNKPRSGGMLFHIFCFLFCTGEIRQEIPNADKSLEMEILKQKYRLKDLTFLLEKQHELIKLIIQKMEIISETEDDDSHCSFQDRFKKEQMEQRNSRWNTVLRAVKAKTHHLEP

With `C=CCN=C=S` [AITC, allyl isothiocyanate] the “activity on TRPA1” value (TRPA1) was “active”.
In the case of `CC(C)OC(=O)CNC(=O)[C@@H]1C[C@H](C)CC[C@H]1C(C)C` [Ax-8, p-Menthane-Gly-OiPr], the “Effects of 15 mg on tongue: duration” value (tongue [1]) is reported as ~27 min and the “Effects of 15 mg on tongue: sensation” value (tongue [1]) is reported as “pleasant cooling in oral cavity”.
In the case of `CCOC(=O)[C@@H](C)NC(=O)[C@@H]1C[C@H](C)CC[C@H]1C(C)C` [CPS-369], the EC50 (TRPM8 [2]) is given as 3.6 µM and the EC50 (TRPM8 [3]) is given as 65 µM.
In the case of `CC(C)[C@@H]1CC[C@@H](C)C[C@H]1OCC(O)CO` (stereo partly shown) [Cool 10, menthoxypropanediol], the EC50 (TRPM8 [4]) is given as 6 µM.
For `CCCCCCCP(=O)(C(C)C)C(C)C` [DIPA-1-7, 1-diisopropylphosphorylheptane], the “sensation on the tongue” value (tongue [5]) is listed as “frigid, stinging, icy, and painful cold”, the adverse skin sensations (philtrum skin; on skin, contrast to FEMA 4557) is listed as “frigid cold and irritation” and the “itch in human subjects” value [6] is listed as “inhibited the itch of urticaria and scalp itch”. The “Effects of 15 mg on tongue: sensation” value (tongue [1]) was “stinging, painful cold” and the “inhibition of pruritogen-induced itch” value [7] was “significantly inhibited itching”.
For `CCNC(=O)[C@@H]1C[C@H](C)CC[C@H]1C(C)C` [WS-3], the Duration-Skin (philtrum skin) is listed as 0.3 h, the EC50 (TRPM8 [4]) is listed as 3.7 µM and the “Effects of 15 mg on tongue: duration” value (tongue [1]) is listed as ~8 min. The “Effects of 15 mg on tongue: sensation” value (tongue [1]) was “pleasant cooling in oral cavity”, the EC50 (TRPM8 [8]) was 5.9 µM and the “Cooling Intensity Oral Cavity Scaled” value (oral cavity) was 5.2. The EC50 (TRPM8 [3]) was 210 µM.
With `CCOC(=O)CNC(=O)[C@@H]1C[C@H](C)CC[C@H]1C(C)C` [WS-5] the “Comments: quality of sensation on philtrum skin” value (philtrum skin) was “pleasant cool sensations of skin”, the Duration of cooling (philtrum skin) was 51 ± 4 min and the Duration-Skin (philtrum skin) was 0.5 h. For the same compound, the “Effects of 15 mg on tongue: duration” value (tongue [1]) was ~12 min, the “Effects of 15 mg on tongue: sensation” value (tongue [1]) was “pleasant cooling in oral cavity” and the EC50 (TRPM8 [8]) was 0.5 µM. For the same compound, the “Cooling Intensity Oral Cavity Scaled” value (oral cavity) was 6 and the EC50 (TRPM8 [3]) was 26 µM.
For `COc1ccc(NC(=O)[C@@H]2C[C@H](C)CC[C@H]2C(C)C)cc1` [WS-12], the EC50 (TRPM8 [2]) is listed as 0.2 µM, the “Comments: quality of sensation on philtrum skin” value (philtrum skin) is listed as “pleasant cool sensations on skin” and the Duration of cooling (philtrum skin) is listed as 38 ± 4 min. For the same compound, the Duration-Skin (philtrum skin) was 0.4 h, the “Effects of 15 mg on tongue: duration” value (tongue [1]) was ~20 min and the “Effects of 15 mg on tongue: sensation” value (tongue [1]) was “pleasant cooling in oral cavity”. For the same compound, the EC50 (TRPM8 [8]) was 22.1 µM, the “Cooling Intensity Oral Cavity Scaled” value (oral cavity) was 3 and the EC50 (TRPM8 [3]) was 12 µM.
In the case of `CCCCCCCP(=O)(C(C)CC)C(C)CC` (stereo not shown) [WS-148], the EC50 (TRPM8 [2]) is given as 4.1 µM.
With `O=C1NC(c2cccc([N+](=O)[O-])c2)=CCN1c1ccccc1O` [icilin] the “Absence of Irritancy” value [9] was “A”, the Potency [9] was “A” and the “Rapid Onset” value [9] was “B”. The “Safety in Use” value [9] was “A”, the “Sufficient Duration” value [9] was “A” and the EC50 (TRPM8 [2]) was 1.4 µM. For the same compound, the scratching excoriations (scratching excoriations) was “prevented scratching excoriations”, the EC50 (TRPM8 [10]) was 0.36 µM and the EC50 (TRPM8 [3]) was 7 µM.
In the case of `CC(=O)N1CCN(c2ccc(OCC3COC(Cn4ccnc4)(c4ccc(Cl)cc4Cl)O3)cc2)CC1` (stereo not shown) [ketoconazole], the “effect of antifungal shampoo on skin irritation” value [11] is reported as “did not make any difference”.
For `CC(C)[C@@H]1CC[C@@H](C)C[C@H]1O` [l-menthol], the EC50 (TRPM8 [2]) is given as 10.4 µM, the Duration-Skin (philtrum skin) is given as 0.3 h and the EC50 (TRPM8 [10]) is given as 67 µM. The EC50 (TRPM8 [4]) was 4.1 µM, the “Cooling Intensity Oral Cavity Scaled” value (oral cavity) was 5 and the EC50 (TRPM8 [3]) was 196 µM.
In the case of `Clc1ccc(COC(Cn2ccnc2)c2ccc(Cl)cc2Cl)c(Cl)c1` (stereo not shown) [miconazole], the “effect of antifungal shampoo on skin irritation” value [11] is reported as “did not make any difference”.
For `CNS(=O)(=O)C[C@H]1CC[C@H](N(C)c2ncnc3[nH]ccc23)CC1` [oclacitinib], the “onset of anti-scratching effects” value (canine atopic dermatitis; oral tablet once or twice a day) is given as “as early as four hours after dosing” and the Onset (canine atopic dermatitis; oral tablet) is given as 15 min, hours.
